Legend:
insulin receptor kinase = insulin receptor kinase (Homo sapiens, UniProt P06213); conditions: Blum et al., Biochemistry 2000; cited from earlier work
isolated IGF-1R kinase = isolated IGF-1R kinase (Homo sapiens, UniProt P08069); conditions: Blum et al., Biochemistry 2000; cited from earlier work
IGF-1R [1] = molecular target: T1, IGF-1R (Homo sapiens, UniProt P08069); assay: Tyrosine phosphorylation of IGF-1R in intact FM55 melanoma cells (immunoprecipitation, Western blot); format: cell-based; parameters: endogenous in cells; host or cells: FM55 human melanoma cells; conditions: 0.7 μM, 1 h; for Level of IGF-1R phosphorylation in intact cells (% OD): Experiment 1, FM55 melanoma cells, control OD = 100%; for Level of phosphorylation in intact cells (% OD), substrate IGF-1R: Experiment 3, FM55 cells, control = 100%
Procedure: (§1) Cells were cultured to subconfluency in 6-cm plates, and then fresh medium containing 10% FBS and the desired compounds were added for 1 h. The cells were then lyzed and subjected to immunoprecipitation using specific antibodies. Immunoprecipitates were resolved by sodium dodecyl sulphate polyacrylamide gel electrophoresis (SDS-PAGE) and transferred to nitro-cellulose membranes and incubated with anti-phosphotyrosine antibody. Antibodies to actin (in cell extract) or IGF-1R beta subunit were used as loading controls. After detection the films were scanned for quantification.
The isolated cells were then lyzed in 10 ml ice-cold PBSTDS containing protease inhibitors (Carlberg, M., et al., J Biol Chem 271:17453-17462, 1996). 50 μl protein A or G agarose was added in 1 ml sample and incubated for 15 min at 4° C. on an orbital shaker. After centrifugation for 10 min at 10,000 r/min at 4° C. the supernatant was saved. The protein content was determined by a dye-binding assay with a reagent purchased from Bio-Rad. Bovine serum albumin was used as a standard. 15 μl Protein G Plus agarose and 5 μl anti-IGF-1R were added. After a 3 h incubation at 4° C. on an orbital shaker the precipitate was collected by pulse centrifugation in a micro centrifuge at 14,000×g for 10 s. The supernatant was discarded and the pellet was washed 3 times with PBSTDS.
Protein samples were solved in a 2×-sample buffer containing Laemmli buffer and 0.5% […] and boiled for 5 min at 96° C. Samples were separated by SDS-PAGE with a 4% stacking gel and 7.5% separation gel. Molecular weight markers (Bio Rad, Sweden) were run simultaneously in all experiments.
Following SDS-PAGE the proteins were transferred overnight to nitro-cellulose membranes (Hybond, Amersham, UK) and then blocked for 1 h at room temperature in a solution of 4% skimmed milk powder and 0.02% Tween 20 in PBS, pH 7.5. Incubations with the primary antibodies were performed for 1 h at room temperature, followed by 3 washes with PBS with Tween and incubation with the second antibody for 1 h room temperature. After another 3 washes the membranes were incubated with Streptavidin-labelled horseradish peroxidase for 30 min and then detected using Amersham ECL system (Amersham, UK). The films were scanned by Fluor-S (BioRad).
Melanoma cells (line FM55) were seeded in 6-cm dishes, at a concentration of 10,000 cells/cm2 in Minimal Essential Medium supplemented with 10% fetal calf serum (FCS). […] Phosphorylation of IGF-1R was detected by an anti-phosphotyrosine antibody using Western blotting. […] The intensities are quantified by a scanner, which measures the optical density (OD) of the signals. […]
Target sequence in this assay (P08069 31-1367): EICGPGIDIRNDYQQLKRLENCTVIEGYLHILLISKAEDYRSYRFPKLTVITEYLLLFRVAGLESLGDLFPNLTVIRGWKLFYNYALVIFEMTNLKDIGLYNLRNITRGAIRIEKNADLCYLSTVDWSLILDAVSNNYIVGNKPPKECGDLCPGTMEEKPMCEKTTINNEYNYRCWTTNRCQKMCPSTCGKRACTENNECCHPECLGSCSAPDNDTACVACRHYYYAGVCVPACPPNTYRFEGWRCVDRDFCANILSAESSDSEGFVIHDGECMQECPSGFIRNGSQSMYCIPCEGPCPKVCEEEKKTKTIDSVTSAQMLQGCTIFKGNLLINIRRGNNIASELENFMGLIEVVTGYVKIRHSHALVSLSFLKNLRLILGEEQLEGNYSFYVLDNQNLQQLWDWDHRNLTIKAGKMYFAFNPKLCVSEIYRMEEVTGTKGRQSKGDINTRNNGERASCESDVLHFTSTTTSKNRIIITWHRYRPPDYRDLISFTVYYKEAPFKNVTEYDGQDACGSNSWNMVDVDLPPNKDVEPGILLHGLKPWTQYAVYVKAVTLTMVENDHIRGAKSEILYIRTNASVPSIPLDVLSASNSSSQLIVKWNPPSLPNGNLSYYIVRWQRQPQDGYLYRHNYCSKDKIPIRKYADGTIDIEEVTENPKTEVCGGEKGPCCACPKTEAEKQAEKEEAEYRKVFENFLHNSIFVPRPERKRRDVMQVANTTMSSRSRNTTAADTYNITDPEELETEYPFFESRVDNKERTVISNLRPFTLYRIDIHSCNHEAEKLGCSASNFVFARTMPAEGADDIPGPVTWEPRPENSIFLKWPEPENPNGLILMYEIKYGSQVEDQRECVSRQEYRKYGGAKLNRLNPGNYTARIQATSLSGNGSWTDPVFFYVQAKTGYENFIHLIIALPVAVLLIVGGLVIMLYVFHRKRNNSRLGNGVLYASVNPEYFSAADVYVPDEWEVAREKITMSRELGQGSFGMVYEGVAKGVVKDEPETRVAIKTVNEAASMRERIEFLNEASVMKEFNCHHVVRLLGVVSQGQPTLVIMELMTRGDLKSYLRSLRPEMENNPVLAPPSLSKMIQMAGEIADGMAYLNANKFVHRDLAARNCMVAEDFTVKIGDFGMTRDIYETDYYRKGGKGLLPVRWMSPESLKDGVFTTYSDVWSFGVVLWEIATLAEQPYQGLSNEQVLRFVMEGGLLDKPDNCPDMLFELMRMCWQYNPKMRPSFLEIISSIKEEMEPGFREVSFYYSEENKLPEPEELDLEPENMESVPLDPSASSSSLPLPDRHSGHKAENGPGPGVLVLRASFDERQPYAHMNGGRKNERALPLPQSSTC

insulin receptor (IR) = molecular target: T2, insulin receptor (IR) (Homo sapiens, UniProt P06213); assay: Tyrosine phosphorylation of IR in intact FM55 melanoma cells; format: cell-based; conditions: Experiment 3, 0.7 μM, 1 h, control = 100%
T2 construct: endogenous in cells; host or cells: FM55 human melanoma cells
Procedure: as §1
(§2) The isolated cells were then lyzed in 10 ml ice-cold PBSTDS containing protease inhibitors (Carlberg, M., et al., J Biol Chem 271:17453-17462, 1996). 50 μl protein A or G agarose was added in 1 ml sample and incubated for 15 min at 4° C. on an orbital shaker. […] The protein content was determined by a dye-binding assay with a reagent purchased from Bio-Rad. […]
(§3) Following SDS-PAGE the proteins were transferred overnight to nitro-cellulose membranes (Hybond, Amersham, UK) and then blocked for 1 h at room temperature in a solution of 4% skimmed milk powder and 0.02% Tween 20 in PBS, pH 7.5. […] After another 3 washes the membranes were incubated with Streptavidin-labelled horseradish peroxidase for 30 min and then detected using Amersham ECL system (Amersham, UK). […]

[2] = tested on: insulin substrate-1 (IRS-1); assay: Tyrosine phosphorylation of IRS-1 in intact FM55 melanoma cells; format: cell-based, human; conditions: Experiment 3, 0.7 μM, 1 h, control = 100%
Procedure: as §1, §2, §3

[3] = molecular target: T3, insulin receptor (IR from HepG2) (Homo sapiens, UniProt P06213); assay: In vitro tyrosine kinase assay: insulin receptor substrate phosphorylation; format: biochemical; conditions: cell-free; data not shown
T3 construct: Immunoprecipitated IR from HepG2; endogenous in cells; host or cells: HepG2
T3 sequence (P06213 28-1382): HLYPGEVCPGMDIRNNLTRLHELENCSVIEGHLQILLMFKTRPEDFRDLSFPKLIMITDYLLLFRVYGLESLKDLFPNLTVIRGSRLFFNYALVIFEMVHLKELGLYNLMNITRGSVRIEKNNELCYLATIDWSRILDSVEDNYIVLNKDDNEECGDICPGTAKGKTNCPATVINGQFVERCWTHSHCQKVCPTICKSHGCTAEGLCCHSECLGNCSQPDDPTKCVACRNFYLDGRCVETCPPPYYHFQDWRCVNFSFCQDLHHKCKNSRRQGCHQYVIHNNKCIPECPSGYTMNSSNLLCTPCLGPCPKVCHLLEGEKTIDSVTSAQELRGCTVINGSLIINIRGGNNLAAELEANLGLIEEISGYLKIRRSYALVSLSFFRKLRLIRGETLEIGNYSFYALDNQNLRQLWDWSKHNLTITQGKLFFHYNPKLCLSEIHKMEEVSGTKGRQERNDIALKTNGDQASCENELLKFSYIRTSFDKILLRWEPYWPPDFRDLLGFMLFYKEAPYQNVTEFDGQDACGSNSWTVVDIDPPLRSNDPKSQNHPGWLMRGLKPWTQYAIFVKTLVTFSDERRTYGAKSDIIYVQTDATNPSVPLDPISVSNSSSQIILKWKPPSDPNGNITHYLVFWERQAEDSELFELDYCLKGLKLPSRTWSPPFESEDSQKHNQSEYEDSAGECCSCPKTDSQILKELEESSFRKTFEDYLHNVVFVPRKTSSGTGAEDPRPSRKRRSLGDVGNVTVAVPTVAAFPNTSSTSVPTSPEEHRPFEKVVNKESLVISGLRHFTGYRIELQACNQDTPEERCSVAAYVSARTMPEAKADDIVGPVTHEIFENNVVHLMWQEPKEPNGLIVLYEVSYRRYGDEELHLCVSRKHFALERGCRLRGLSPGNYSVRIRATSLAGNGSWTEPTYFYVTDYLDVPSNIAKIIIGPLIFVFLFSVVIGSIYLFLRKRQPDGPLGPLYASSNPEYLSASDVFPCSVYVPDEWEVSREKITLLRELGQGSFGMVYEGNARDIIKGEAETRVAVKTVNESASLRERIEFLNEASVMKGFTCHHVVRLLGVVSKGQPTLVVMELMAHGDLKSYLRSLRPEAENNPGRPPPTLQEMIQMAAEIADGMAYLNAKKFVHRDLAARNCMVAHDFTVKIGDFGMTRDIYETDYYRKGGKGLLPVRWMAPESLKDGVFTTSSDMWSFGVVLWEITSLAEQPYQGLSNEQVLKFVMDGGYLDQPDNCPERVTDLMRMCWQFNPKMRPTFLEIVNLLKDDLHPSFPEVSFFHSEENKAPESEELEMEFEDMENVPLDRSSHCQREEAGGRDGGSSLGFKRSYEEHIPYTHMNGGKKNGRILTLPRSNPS
Procedure: (§4) IGF-1R-catalyzed substrate phosphorylation of polyTyrGlu (pTG) was performed essentially as previously described [Parrizas M., et al., see above, and Blum G., et al., see above]. Immunoprecipitated IR from HepG2, IGF-1R from P6 cell extract and immunodepleted supernatant to assay non-IGF-1R tyrosine kinases. The phosphorylated polymer substrate was probed with a purified phosphotyrosine specific monoclonal antibody conjugated to horseradish peroxidase (HARP). Color was developed with HRP chromogenic substrate o-phenylenediamine dihydrochloride (OPD). The color was quantitated by spectrophotometry (BLISA reader) and reflects the relative amount of tyrosine kinase. The precipitate was immunoblotted with antibodies to IGF-1R and IR to verify the presence of the receptor. Serial dilutions were used to assay the optimal conditions with respect to the amount of IGF-1R and IR. The signal was linear for 30 minutes and was a function of IGF-1R concentration up to 75 ng/well. Briefly, 96 well plates (Immunolon, Nunc) were coated overnight at 4° C. with a mouse monoclonal antibody (LabVision) against the beta-subunit of IGF-1R at a concentration of 1 μg/ml. […]
(§5) We isolated the receptor and determined the effects of 4,5-demethylene-deoxypodophyllotoxin on IGF-1R catalyzed substrate tyrosine phosphorylation and IGF-1R autophosphorylation in-vitro. […]

[4] = molecular target: T4, IGF-1R from P6 cell extract (Homo sapiens, UniProt P08069); assay: In vitro tyrosine kinase assay: IGF-1R-catalyzed pTG substrate phosphorylation; format: biochemical; conditions: cell-free
T4 construct: expressed in transfected cells; host or cells: P6 cell line (embryonic mouse fibroblasts)
T4 sequence (P08069 31-1367): as the sequence (P08069 31-1367) above
Procedure: as §4, §5

[5] = tested on: platelet-derived growth factor receptor (PDGFR); assay: Tyrosine phosphorylation of PDGFR in intact FM55 melanoma cells; format: cell-based, human; conditions: Experiment 3, 0.7 μM, 1 h, control = 100%
Procedure: as §1, §2, §3

[6] = tested on: fibroblast growth factor receptor (FGFR); assay: Tyrosine phosphorylation of FGFR in intact FM55 melanoma cells; format: cell-based, human; conditions: Experiment 3, 0.7 μM, 1 h, control = 100%
Procedure: as §1, §2, §3

[7] = molecular target: epidermal growth factor receptor (Homo sapiens, UniProt P00533); assay: In vitro tyrosine kinase assay: EGFR substrate phosphorylation; format: biochemical; conditions: cell-free; data not shown
Sequence of epidermal growth factor receptor (P00533 25-1210, species assumed): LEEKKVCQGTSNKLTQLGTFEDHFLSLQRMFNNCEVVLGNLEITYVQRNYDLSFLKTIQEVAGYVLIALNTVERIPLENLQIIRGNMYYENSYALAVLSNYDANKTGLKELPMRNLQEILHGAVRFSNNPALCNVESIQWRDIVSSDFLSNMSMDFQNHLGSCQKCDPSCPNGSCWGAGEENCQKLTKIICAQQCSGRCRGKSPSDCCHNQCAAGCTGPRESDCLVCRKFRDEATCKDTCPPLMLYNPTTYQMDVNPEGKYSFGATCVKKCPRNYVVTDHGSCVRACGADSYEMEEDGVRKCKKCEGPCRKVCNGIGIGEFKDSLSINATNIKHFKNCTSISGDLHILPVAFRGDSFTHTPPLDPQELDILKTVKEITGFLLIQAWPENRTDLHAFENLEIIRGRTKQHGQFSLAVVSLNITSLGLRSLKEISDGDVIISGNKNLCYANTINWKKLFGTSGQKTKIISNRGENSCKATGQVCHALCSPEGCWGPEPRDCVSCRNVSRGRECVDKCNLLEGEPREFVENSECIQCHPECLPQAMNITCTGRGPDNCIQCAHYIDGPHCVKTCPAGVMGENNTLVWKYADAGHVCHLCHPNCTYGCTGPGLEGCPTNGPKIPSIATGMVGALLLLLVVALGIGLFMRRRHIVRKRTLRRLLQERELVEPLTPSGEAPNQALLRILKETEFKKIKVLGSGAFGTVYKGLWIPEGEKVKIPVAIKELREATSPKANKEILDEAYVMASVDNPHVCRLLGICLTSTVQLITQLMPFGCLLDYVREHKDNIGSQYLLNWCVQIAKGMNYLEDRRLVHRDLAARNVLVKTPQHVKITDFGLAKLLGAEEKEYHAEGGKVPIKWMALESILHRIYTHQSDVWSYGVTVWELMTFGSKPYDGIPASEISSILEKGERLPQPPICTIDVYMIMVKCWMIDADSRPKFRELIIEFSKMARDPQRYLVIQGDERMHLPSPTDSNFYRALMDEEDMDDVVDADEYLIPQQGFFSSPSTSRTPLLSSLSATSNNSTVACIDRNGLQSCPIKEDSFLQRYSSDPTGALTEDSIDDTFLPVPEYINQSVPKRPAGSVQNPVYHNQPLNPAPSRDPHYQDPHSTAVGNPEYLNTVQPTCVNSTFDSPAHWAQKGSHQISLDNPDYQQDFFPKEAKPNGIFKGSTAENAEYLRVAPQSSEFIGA

non-IGF-1R kinases = assay: In vitro tyrosine kinase assay: non-IGF-1R kinases (IGF-1R immunodepleted supernatant); format: biochemical; conditions: cell-free; kinases obtained by immunodepletion of IGF-1R; data not shown
Procedure: as §4, §5

[8] = molecular target: T5, epidermal growth factor receptor (EGFR) (Homo sapiens, UniProt P00533); assay: Tyrosine phosphorylation of EGFR in intact FM55 melanoma cells; format: cell-based; conditions: Experiment 3, 0.7 μM, 1 h, control = 100%
T5 construct: endogenous in cells; host or cells: FM55 human melanoma cells
T5 sequence (P00533 25-1210): as the sequence (P00533 25-1210, species assumed) above
Procedure: as §1, §2, §3

IGF-1R [9] = molecular target: T1, IGF-1R; assay: IGF-1R tyrosine autophosphorylation, sandwich ELISA; format: biochemical; conditions: cell-free; stronger response by podophyllotoxin
Procedure: IGF-1R tyrosine autophosphorylation was analysed by a sandwich ELISA assay. Briefly, 96-well plates (Immunolon, Nunc) were coated overnight at 4° C. with 1 μg/well of the monoclonal antibody Ab-5 (LabVision) to the IGF-1R beta subunit. The plates were blocked with 1% BSA in PBS Tween for 1 h, then 80 µg/well of total protein lysate from the P6 cell line was added. As a negative control was used total protein lysate from R-cell line. The investigated compounds were added in tyrosine kinase buffer without ATP at room temperature for 30 min, prior to kinase activation with ATP. Kinase assay was performed using the Sigma kit.
We isolated the receptor and determined the effects of 4,5-demethylene-deoxypodophyllotoxin on IGF-1R catalyzed substrate tyrosine phosphorylation and IGF-1R autophosphorylation in-vitro. […] A stronger response was obtained by podophyllotoxin.
Target sequence in this assay (P08069 31-1367): as the sequence (P08069 31-1367) above

IGF-1R [10] = molecular target: T1, IGF-1R; assay: Effect on IGF-1R (method not given)

SMILES | Effect on insulin receptor kinase (insulin receptor kinase) | IC50 (isolated IGF-1R kinase) [nM] | Level of IGF-1R phosphorylation in intact cells (% OD) (IGF-1R [1]) | Level of phosphorylation in intact cells (% OD), substrate IGF-1R (IGF-1R [1]) [% OD] | Level of phosphorylation in intact cells (% OD), substrate IR (insulin receptor (IR)) [% OD] | Level of phosphorylation in intact cells (% OD), substrate IRS-1 [2] [% OD] | Interference with substrate phosphorylation of insulin receptor tyrosine kinase [3] | Decrease of pTG substrate phosphorylation by the IGF-1 receptor ([4]; 0.5 μM) | Level of phosphorylation in intact cells (% OD), substrate PDGFR [5] [% OD] | Level of phosphorylation in intact cells (% OD), substrate FGFR [6] [% OD] | Interference with substrate phosphorylation of epidermal growth factor receptor tyrosine kinase [7] | Interference with substrate phosphorylation of other non-IGF-1R kinases (non-IGF-1R kinases) | Level of phosphorylation in intact cells (% OD), substrate EGFR [8] [% OD] | Inhibition of autophosphorylation of IGF-1R in vitro (IGF-1R [9]) | Effect on IGF-1R substrate phosphorylation [4] | Effect on IGF-1R (IGF-1R [10])
N#C/C(=C\c1ccc(O)c(O)c1)C(=O)c1ccc(O)c(O)c1 [tyrphostin AG 538] | blocked | 400 | – | – | – | – | – | – | – | – | – | – | – | – | – | –
COc1cc(C2c3cc(O)c(O)cc3CC3COC(=O)C32)cc(OC)c1OC (stereo not drawn) [4,5-demethylene-deoxypodophyllotoxin] | – | – | 73 | 65 | 102 | 70 | failed to interfere | about 35% | 99 | 104 | failed to interfere | failed to interfere | 100 | inhibited | – | –
COc1cc([C@@H]2c3cc4c(cc3[C@H](O)[C@H]3COC(=O)[C@H]23)OCO4)cc(OC)c1OC [Podophyllotoxin, podophyllotoxin] | – | – | 10 | 12 | 103 | 9 | had only effect on IGF-1R | – | 101 | 99 | had only effect on IGF-1R | had only effect on IGF-1R | 102 | inhibited | had only effect on IGF-1R | –
COc1cc(C2c3cc4c(cc3C(OC3OC5COC(c6ccccc6)OC5C(O)C3O)C3COC(=O)C23)OCO4)cc(OC)c1OC [podophyllotoxin-4,6-O-benzylidene-β-D-glucopyranoside] | – | – | – | – | – | – | – | – | – | – | – | – | – | – | – | completely disappeared

Reference: patent US20070123491A1, “Podophyllotoxin derivatives as igf-1r inhibitors” (BIOVITRUM AB, priority 2003, published 2007)
